Results taken from patent US20100286150A1, “LEVOSIMENDAN FOR USE IN TREATING CHRONIC VALVULAR DISEASE” (priority 2008, published 2010).

System: dogs diagnosed with chronic valvular disease (CVD)
Test: Double-blind placebo-controlled study of long-term efficacy, safety and survival in dogs with chronic valvular disease
Assay type: in vivo
Conditions: for Owner-reported symptom score (mean ± SD): score 0 (best) to 18 (worst), 0.05 mg/kg orally twice a day
Description: A double-blind placebo-controlled study was conducted for evaluating the long-term efficacy and safety of levosimendan and its effect on long-term survival in dogs diagnosed with chronic valvular disease (CVD). Dogs were randomised to receive either 0.05 mg/kg of levosimendan (n=40) or placebo (n=40) orally twice a day for 5 months. All dogs were allowed to receive their background therapy (ACE-inhibitors, diuretics, beta-blockers and/or digoxin). Quality of life, symptoms of CVD, safety and mortality assessment were conducted throughout the study.
Improvement in quality of life was determined by using a composite owner-reported symptom score (ORSS). ORSS is a composite variable that was calculated by summing scores for appetite, intolerance to exercise, daytime cough, nocturnal cough, and nocturnal restlessness. The owner-reported symptom score could range from 0 (best possible) to 18 (worst possible).

[1] = 0.05 mg/kg orally twice a day for 5 months, added to standard therapy, vs placebo, FIG. 1

SMILES: C[C@@H]1CC(=O)NN=C1c1ccc(NN=C(C#N)C#N)cc1 [levosimendan, (−)-enantiomer of [[4-(1,4,5,6-tetrahydro-4-methyl-6-oxo-3-pyridazinyl)phenyl]hydrazono]propanedinitrile]
- safety (0.05 mg/kg orally twice a day for 5 months in dogs with CVD): No significant safety concerns
- mortality [1]: significantly reduced mortality
- survival [1]: prolonged survival
- quality of life over time compared to baseline assessments (0 months) (owner-reported symptom score, 0.05 mg/kg orally twice a day for 5 months): significantly improved
- Owner-reported symptom score (mean ± SD) (time 0 months (baseline)): 5.6 ± 2.4
- Owner-reported symptom score (mean ± SD) (time 1 month): 4.1 ± 3.2
- Owner-reported symptom score (mean ± SD) (time 3 months): 4.4 ± 4.1
- Owner-reported symptom score (mean ± SD) (time 5 months): 4.4 ± 3.4
